What was measured:
HCT116 cells = test: Annexin V/propidium iodide apoptosis assay, flow cytometry; format: cell-based, human; conditions: 48 hours; annexin V-FITC and PI staining; concentration-dependent
Protocol: Figure 4 Inhibitory effects of YLT192 on tumor cells. (A) YLT192 inhibited U251 and HCT116 cells proliferation. The EdU incorporation assay was conducted on U251 and HCT116 cells after treated with YLT192 for 24 hours. The EdU-positive (red fluorescent staining) cells and Hoechst staining (blue fluorescent staining) cells represented proliferating and total cells in the fluorescent images, respectively (100×). Quantification was shown on the right panels. (B) YLT192 induced apoptosis of HCT116 cells. HCT116 cells were treated with YLT192 or vehicle for 48 hours followed by flow cytometric analysis of annexin V-FITC and PI staining. The proportion of early apoptotic cells (annexin V positive) and late apoptotic cells (annexin V and PI positive cells) were shown. Typical apoptosis-related proteins caspase 3 and Bax were detected by western blot. Each has the expression of β-actin as internal control. The full size blots were shown in the Supplemental Figure S6 online. For (A) and (B), one representative experiment of three is shown. Data are means ± SEM, *P < 0.05, **P < 0.01. (C) YLT192 inhibited oncogenic signaling pathways in tumor cells in vitro. U251 and HCT116 cells were treated with YLT192 or vehicle for 48 hours and the expression of protein in different signaling pathways were detected by western blot with specific antibodies. Blots are representative of three experiments. […]

Axl = target: T1, Axl (Homo sapiens, UniProt P30530); test: Radiometric kinase assay (Millipore Kinase Profile Service); format: biochemical; conditions: means ± SD, two independent experiments, read-out: inhibition rate at 1 μM (%)
T1 construct: purchased Millipore (Kinase Profile Service, UK)
Protocol: (§1) YLT192 was designed and synthesized in the State Key Laboratory of Biotherapy, Sichuan University (Sichuan, China). Its structural formula and synthesis route was shown in Fig. 1A and Supplementary Figure S1, respectively. The kinase inhibitory activity of YLT192 was measured by the use of radiometric assays provided by Kinase Profile Service (Millipore, UK). The effects of YLT192 on kinase activity were detected using the scintillation proximity assay method at an enzymatic level. […] In addition, the inhibitory activity of YLT192 was examined against platelet-derived growth factor receptor (PDGFR)-related kinases because of their structural similarity to the VEGFR2. […] Moreover, excellent selectivity for VEGFR2 was evident compared with a range of unrelated tyrosine and serine/threonine kinases, including fibroblast growth factor receptor 3, polo-like kinase 1, aurora-A, Axl, MET, protein kinase A, c-RAF etc.

Met = target: T2, Met (Homo sapiens, UniProt P08581); test: as above; format: biochemical; conditions: means ± SD, two independent experiments, read-out: inhibition rate at 1 μM (%)
T2 construct: purchased Millipore (Kinase Profile Service, UK)
Protocol: as §1

FGFR3 = target: T3, FGFR3 (Homo sapiens, UniProt P22607); test: as above; format: biochemical; conditions: means ± SD, two independent experiments, read-out: inhibition rate at 1 μM (%)
T3 construct: purchased Millipore (Kinase Profile Service, UK)
Protocol: as §1

mTOR = target: T4, mTOR (Homo sapiens, UniProt P42345); test: as above; format: biochemical; conditions: means ± SD, two independent experiments, read-out: inhibition rate at 1 μM (%)
T4 construct: purchased Millipore (Kinase Profile Service, UK)
Protocol: as §1

Aurora-B = target: T5, Aurora-B (Homo sapiens, UniProt Q96GD4); test: as above; format: biochemical; conditions: means ± SD, two independent experiments, read-out: inhibition rate at 1 μM (%)
T5 construct: purchased Millipore (Kinase Profile Service, UK)
Protocol: as §1

c-RAF = target: T6, c-RAF (Homo sapiens, UniProt P04049, Y340D/Y341D); test: as above; format: biochemical; conditions: means ± SD, two independent experiments, read-out: inhibition rate at 1 μM (%)
T6 construct: purchased Millipore (Kinase Profile Service, UK)
Protocol: as §1

JAK3 = target: T7, JAK3 (Homo sapiens, UniProt P52333); test: as above; format: biochemical; conditions: means ± SD, two independent experiments, read-out: inhibition rate at 1 μM (%)
T7 construct: purchased Millipore (Kinase Profile Service, UK)
Protocol: as §1

IKKβ = target: T8, IKKβ (Homo sapiens, UniProt O14920); test: as above; format: biochemical; conditions: means ± SD, two independent experiments, read-out: inhibition rate at 1 μM (%)
T8 construct: purchased Millipore (Kinase Profile Service, UK)
Protocol: as §1

PKA = target: T9, PKA (Homo sapiens, UniProt P17612); test: as above; format: biochemical; conditions: means ± SD, two independent experiments, read-out: inhibition rate at 1 μM (%)
T9 construct: purchased Millipore (Kinase Profile Service, UK)
Protocol: as §1

PDGFRα = target: T10, PDGFRα (Homo sapiens, UniProt P16234); test: as above; format: biochemical; conditions: means ± SD, two independent experiments, read-out: inhibition rate at 1 μM (%)
T10 construct: purchased Millipore (Kinase Profile Service, UK)
Protocol: as §1

Ret = target: T11, Ret (Homo sapiens, UniProt P07949); test: as above; format: biochemical; conditions: means ± SD, two independent experiments, read-out: inhibition rate at 1 μM (%)
T11 construct: purchased Millipore (Kinase Profile Service, UK)
Protocol: as §1

JNK3 = target: T12, JNK3 (Homo sapiens, UniProt P53779); test: as above; format: biochemical; conditions: means ± SD, two independent experiments, read-out: inhibition rate at 1 μM (%)
T12 construct: purchased Millipore (Kinase Profile Service, UK)
Protocol: as §1

[1] = mouse, in vivo
Protocol: All the HCT116 model mice were sacrificed after 24 days of treatment.
During the treatment of human colorectal carcinoma HCT116 xenograft on nude mice, they were also observed every day to investigate the side effects and toxicities after YLT192's longer time administration. Finally, serum biochemistry, hematological analysis, organ coefficients and histological examinations of heart, liver, spleen, lung, and kidney were carried out after dissection. Serum chemistry and hematological analysis was carried out.
in normal tissues. After the treatment of HCT116 xenograft, heart, liver, spleen, lung
and kidney of the mice were isolated and stained with H&E (n=6 mice per group).
Scale bars represent 50μm.
(1 picture or pasted object on this page, not shown here)

T6 sequence (P04049 306-648 Y340D/Y341D limits assumed): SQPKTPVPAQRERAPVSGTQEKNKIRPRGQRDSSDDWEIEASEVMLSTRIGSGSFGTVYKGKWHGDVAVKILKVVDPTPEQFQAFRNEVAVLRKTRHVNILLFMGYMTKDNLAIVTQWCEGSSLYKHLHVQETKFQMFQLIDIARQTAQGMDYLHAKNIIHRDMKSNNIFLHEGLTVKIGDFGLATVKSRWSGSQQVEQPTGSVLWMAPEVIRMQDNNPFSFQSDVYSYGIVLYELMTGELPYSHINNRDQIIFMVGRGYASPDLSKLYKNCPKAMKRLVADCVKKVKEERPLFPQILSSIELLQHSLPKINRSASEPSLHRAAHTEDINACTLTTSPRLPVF
T2 sequence (P08581 25-1390): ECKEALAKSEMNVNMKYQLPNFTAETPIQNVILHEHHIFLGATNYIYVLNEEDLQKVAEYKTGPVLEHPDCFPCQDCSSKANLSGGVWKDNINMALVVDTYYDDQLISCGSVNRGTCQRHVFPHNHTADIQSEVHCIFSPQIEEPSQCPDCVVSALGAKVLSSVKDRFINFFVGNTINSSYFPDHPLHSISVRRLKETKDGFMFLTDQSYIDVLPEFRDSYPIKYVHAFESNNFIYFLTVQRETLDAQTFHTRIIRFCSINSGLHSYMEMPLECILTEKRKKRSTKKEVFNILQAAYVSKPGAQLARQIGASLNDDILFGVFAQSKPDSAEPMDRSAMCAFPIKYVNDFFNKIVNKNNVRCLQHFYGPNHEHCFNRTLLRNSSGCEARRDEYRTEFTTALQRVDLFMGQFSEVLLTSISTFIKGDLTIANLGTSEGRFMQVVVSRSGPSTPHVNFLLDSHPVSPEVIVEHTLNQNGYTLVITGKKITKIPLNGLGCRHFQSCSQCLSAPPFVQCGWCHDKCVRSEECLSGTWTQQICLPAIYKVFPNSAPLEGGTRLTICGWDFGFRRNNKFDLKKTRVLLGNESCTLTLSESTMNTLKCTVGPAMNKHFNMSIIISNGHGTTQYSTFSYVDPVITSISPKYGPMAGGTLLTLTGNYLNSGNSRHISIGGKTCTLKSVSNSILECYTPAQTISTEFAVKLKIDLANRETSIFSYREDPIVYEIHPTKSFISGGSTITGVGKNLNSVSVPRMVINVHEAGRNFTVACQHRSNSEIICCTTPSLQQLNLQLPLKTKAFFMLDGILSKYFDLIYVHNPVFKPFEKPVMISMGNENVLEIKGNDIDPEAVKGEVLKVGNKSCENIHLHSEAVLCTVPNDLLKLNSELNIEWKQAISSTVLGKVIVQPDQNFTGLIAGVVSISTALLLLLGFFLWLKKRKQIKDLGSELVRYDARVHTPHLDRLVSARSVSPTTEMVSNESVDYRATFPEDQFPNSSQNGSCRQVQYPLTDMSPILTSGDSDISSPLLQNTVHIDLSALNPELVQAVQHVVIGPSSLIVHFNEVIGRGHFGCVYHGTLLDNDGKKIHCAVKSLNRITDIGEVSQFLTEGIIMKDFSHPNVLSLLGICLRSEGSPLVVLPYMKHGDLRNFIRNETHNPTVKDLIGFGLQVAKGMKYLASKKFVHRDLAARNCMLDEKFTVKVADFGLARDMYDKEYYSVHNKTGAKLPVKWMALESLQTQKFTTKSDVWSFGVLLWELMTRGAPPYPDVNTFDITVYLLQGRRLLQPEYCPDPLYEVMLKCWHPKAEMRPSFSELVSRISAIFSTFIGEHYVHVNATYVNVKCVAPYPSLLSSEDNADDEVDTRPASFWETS
T11 sequence (P07949 29-1114): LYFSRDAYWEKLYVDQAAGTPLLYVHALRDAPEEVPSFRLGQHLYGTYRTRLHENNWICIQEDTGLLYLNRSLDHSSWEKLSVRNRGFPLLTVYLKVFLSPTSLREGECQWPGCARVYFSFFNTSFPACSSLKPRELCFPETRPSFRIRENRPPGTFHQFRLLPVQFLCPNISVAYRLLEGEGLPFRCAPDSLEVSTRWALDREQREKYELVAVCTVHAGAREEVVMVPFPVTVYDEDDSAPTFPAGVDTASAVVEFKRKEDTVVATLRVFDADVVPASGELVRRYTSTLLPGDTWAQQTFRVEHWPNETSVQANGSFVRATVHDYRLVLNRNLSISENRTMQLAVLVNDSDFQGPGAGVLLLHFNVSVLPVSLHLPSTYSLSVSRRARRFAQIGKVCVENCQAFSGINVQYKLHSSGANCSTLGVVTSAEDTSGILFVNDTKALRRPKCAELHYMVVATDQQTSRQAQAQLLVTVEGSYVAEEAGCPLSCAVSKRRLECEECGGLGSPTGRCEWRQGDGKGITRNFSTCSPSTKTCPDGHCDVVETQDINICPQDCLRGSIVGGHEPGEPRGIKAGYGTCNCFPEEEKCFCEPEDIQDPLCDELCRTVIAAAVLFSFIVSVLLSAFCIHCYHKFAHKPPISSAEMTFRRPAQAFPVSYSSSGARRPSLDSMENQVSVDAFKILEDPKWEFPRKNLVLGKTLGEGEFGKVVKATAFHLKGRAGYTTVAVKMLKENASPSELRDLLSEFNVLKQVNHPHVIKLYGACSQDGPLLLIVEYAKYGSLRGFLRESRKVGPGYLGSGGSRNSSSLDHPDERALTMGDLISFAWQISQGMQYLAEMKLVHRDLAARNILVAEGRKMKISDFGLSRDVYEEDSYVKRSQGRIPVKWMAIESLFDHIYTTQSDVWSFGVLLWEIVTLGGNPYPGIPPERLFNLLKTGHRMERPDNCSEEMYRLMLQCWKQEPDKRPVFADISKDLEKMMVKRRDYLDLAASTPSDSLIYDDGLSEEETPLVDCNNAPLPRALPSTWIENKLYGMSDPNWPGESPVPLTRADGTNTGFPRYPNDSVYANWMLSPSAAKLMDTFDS
T12 sequence (P53779 whole entry): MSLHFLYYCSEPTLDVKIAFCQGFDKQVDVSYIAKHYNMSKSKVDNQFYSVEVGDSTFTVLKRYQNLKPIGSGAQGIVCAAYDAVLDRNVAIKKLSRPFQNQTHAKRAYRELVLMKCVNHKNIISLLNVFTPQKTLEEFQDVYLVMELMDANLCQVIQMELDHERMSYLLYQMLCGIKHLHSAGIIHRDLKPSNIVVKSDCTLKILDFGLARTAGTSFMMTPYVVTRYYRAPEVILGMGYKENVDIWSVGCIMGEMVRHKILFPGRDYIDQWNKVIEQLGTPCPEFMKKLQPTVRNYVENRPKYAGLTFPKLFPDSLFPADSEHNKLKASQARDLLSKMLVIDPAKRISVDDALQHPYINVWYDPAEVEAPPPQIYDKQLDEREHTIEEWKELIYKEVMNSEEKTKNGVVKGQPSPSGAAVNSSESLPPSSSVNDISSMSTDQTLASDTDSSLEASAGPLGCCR
T10 sequence (P16234 24-1089): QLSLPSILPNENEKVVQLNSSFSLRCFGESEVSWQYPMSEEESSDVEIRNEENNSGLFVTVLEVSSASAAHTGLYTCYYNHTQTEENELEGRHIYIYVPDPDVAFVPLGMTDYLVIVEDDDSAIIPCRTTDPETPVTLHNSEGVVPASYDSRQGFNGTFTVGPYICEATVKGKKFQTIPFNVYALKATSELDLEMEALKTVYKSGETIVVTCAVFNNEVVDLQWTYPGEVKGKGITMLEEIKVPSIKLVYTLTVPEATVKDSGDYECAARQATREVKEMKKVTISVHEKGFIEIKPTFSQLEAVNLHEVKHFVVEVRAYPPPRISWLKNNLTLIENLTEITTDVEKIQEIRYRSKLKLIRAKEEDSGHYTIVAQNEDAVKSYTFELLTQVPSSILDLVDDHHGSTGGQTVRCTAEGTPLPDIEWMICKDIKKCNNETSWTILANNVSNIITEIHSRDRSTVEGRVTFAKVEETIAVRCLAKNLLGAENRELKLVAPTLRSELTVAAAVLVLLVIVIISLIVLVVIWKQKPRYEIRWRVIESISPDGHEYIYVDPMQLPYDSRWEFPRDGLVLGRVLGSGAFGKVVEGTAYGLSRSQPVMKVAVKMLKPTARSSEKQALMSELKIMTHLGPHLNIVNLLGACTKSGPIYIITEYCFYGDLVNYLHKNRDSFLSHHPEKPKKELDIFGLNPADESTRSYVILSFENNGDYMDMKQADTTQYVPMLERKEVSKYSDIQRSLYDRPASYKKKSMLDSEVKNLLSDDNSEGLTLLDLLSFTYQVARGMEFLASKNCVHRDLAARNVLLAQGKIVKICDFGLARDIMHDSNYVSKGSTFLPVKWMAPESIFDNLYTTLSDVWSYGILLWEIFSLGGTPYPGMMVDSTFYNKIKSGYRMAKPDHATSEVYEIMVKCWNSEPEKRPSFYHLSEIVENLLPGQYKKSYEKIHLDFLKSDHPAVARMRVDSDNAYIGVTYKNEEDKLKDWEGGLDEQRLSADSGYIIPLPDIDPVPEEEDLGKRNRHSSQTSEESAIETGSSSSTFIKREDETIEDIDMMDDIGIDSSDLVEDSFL
T5 sequence (Q96GD4 whole entry): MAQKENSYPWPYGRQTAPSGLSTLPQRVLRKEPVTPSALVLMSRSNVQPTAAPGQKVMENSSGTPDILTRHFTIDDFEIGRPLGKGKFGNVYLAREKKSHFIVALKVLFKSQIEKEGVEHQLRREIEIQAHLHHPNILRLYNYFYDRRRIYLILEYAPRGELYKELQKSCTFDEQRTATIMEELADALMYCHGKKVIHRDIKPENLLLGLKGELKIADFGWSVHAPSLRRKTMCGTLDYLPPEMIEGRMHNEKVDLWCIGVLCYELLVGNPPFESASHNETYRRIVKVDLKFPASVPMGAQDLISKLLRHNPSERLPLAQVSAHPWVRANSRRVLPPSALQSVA

For `CNC(=O)c1cc(Oc2ccc(NC(=O)c3cccc(OC)c3)cc2)ccn1` [YLT192], the “apoptosis in HCT116 cells” value (HCT116 cells) was “increased apoptosis”, the inhibition at 1 µM (Axl) was -7 ± 7% and the inhibition at 1 µM (Met) was -2 ± 6%. For the same compound, the inhibition at 1 µM (FGFR3) was 4 ± 6%, the inhibition at 1 µM (mTOR) was 0% and the inhibition at 1 µM (Aurora-B) was 23 ± 5%. The inhibition at 1 µM (c-RAF) was 3 ± 3%, the inhibition at 1 µM (JAK3) was -7 ± 4% and the inhibition at 1 µM (IKKβ) was 2 ± 6%. It also gave an inhibition at 1 µM (PKA) of -10 ± 4%, an inhibition at 1 µM (PDGFRα) of 5 ± 3% and an inhibition at 1 µM (Ret) of 23 ± 3%. The inhibition at 1 µM (JNK3) was 3 ± 5%, the “adverse effects, such as diarrhea or toxic death” value [1] was “did not observed adverse effects” and the “microscopic examination of the heart, liver, spleen, lung, and kidney” value [1] was “no pathological changes”.

Source: publication PMC4129416, “YLT192, a Novel, Orally Active Bioavailable Inhibitor of VEGFR2 Signaling with Potent Antiangiogenic Activity and Antitumor Efficacy in Preclinical Models” (Scientific Reports, 2014)
